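1) Cells in 96-well plates. 2) Compound, 48 h, 5 concentrations. 3) Linear interpolation between surrounding doses. 4) Unreached endpoint = highest concentration. Abbreviation: GI50, concentration required for 50% inhibition of growth.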 The source made the active and inactive calls. Cut-off read from the data, not from the text of the source: active = GI50 up to about 1.1 µM and inactive = higher.

Among the test systems are ACHN; OVCAR-8; SNB-75; MOLT-4; SN12C; 786-0; EKVX; SK-MEL-2; LOX IMVI; HCC 2998; MCF7; HT-29; T47D; DU-145; A498; OVCAR-5; RPMI-8226; NCI-H23; HOP-92.
What all share (test): growth of human tumour cells (NCI), 48 h

For the compound `CC(C)(/N=N/C(C)(C)C1=NCCN1)C1=NCCN1`, the GI50 in the experiment with ACHN is > 100 µM (inactive); with OVCAR-8, > 100 µM (inactive); with SNB-75, > 100 µM (inactive); in the experiment with MOLT-4, > 100 µM (inactive); in the experiment on SN12C it was > 78.5 µM (inactive); with 786-0, > 71.4 µM (inactive). Further, the GI50 in the experiment on EKVX was > 100 µM (inactive); with SK-MEL-2, > 100 µM (inactive); in the experiment on LOX IMVI, > 66.1 µM (inactive); in the experiment with HCC 2998, > 100 µM (inactive); in the experiment with MCF7, > 69.5 µM (inactive); with HT-29, > 100 µM (inactive). The GI50 in the experiment with T47D is 76.6 µM (inactive); with DU-145, > 100 µM (inactive); in the experiment on A498, > 100 µM (inactive); in the experiment on OVCAR-5 it was > 100 µM (inactive).

`CCCCCCC(CCl)c1sc(-c2csc(CCNC(=O)OC(C)(C)C)n2)nc1C(=O)OC` (stereo not drawn): the GI50 was 23.3 µM (inactive) in the experiment on ACHN; 24.6 µM (inactive) in the experiment with OVCAR-8; 4.58 µM (inactive) in the experiment on MOLT-4; 19.2 µM (inactive) in the experiment on SN12C; 19.3 µM (inactive) in the experiment with 786-0; 26.6 µM (inactive) with EKVX. In addition, the GI50 is 9.68 µM (inactive) with RPMI-8226; 11.7 µM (inactive) in the experiment with SK-MEL-2; 13.2 µM (inactive) with LOX IMVI; 22.7 µM (inactive) in the experiment with HCC 2998; 11 µM (inactive) with MCF7; 15.3 µM (inactive) with NCI-H23. The GI50 is 20.6 µM (inactive) with HT-29; 40.8 µM (inactive) with HOP-92; 3.53 µM (inactive) in the experiment with T47D; 33.7 µM (inactive) with DU-145; 28.8 µM (inactive) in the experiment on A498; 32.1 µM (inactive) with OVCAR-5.

`CC1CC(C)CC(NC2=NCCO2)C1` (stereo not drawn): the GI50 with ACHN, in the experiment with OVCAR-8, with MOLT-4, with SN12C, in the experiment on 786-0 and with EKVX was > 100 µM (inactive) in each case. In addition, the GI50 with RPMI-8226, in the experiment with SK-MEL-2, in the experiment on LOX IMVI, in the experiment with HCC 2998, with MCF7 and with NCI-H23 was > 100 µM (inactive) in each case. Moreover, the GI50 with HT-29, in the experiment on HOP-92, in the experiment with T47D, in the experiment with DU-145, in the experiment on A498 and in the experiment with OVCAR-5 was > 100 µM (inactive) throughout.

As for `NNC(=O)CCSc1ccccc1`, the GI50 in the experiment on ACHN, in the experiment on OVCAR-8, in the experiment with SNB-75, in the experiment with MOLT-4, with SN12C and with 786-0 was > 100 µM (inactive) in each case. In addition, the GI50 with EKVX, in the experiment with RPMI-8226, in the experiment with SK-MEL-2, in the experiment with LOX IMVI, with HCC 2998 and with MCF7 was > 100 µM (inactive) throughout. The GI50 with NCI-H23, in the experiment on HT-29, with T47D, in the experiment with DU-145, with A498 and with OVCAR-5 was > 100 µM (inactive) each time.

Regarding `COc1ccc2nc(-c3ccccc3)c(=O)[nH]c2c1`, the GI50 in the experiment on ACHN, in the experiment on OVCAR-8, in the experiment with SNB-75, in the experiment on MOLT-4, with SN12C and with 786-0 was > 100 µM (inactive) in each case. Further, the GI50 in the experiment with EKVX, with RPMI-8226, in the experiment on LOX IMVI, with HCC 2998, in the experiment with MCF7 and in the experiment on NCI-H23 was > 100 µM (inactive) throughout. In addition, the GI50 with HT-29, in the experiment with HOP-92, with T47D, in the experiment on DU-145, in the experiment with A498 and with OVCAR-5 was > 100 µM (inactive) each time.

Consider `O=C(O)CN1C(=O)c2ccc(NC(=O)C(=O)O)cc2S1(=O)=O`, for which the GI50 in the experiment on ACHN, in the experiment with MOLT-4, in the experiment on SN12C, in the experiment with 786-0, in the experiment with EKVX and with RPMI-8226 was > 100 µM (inactive) each time. Further, the GI50 in the experiment on SK-MEL-2, in the experiment on LOX IMVI, in the experiment on HCC 2998, in the experiment on MCF7, in the experiment on NCI-H23 and in the experiment with HOP-92 was > 100 µM (inactive) in each case. The GI50 in the experiment on T47D, in the experiment on DU-145, in the experiment with A498 and in the experiment with OVCAR-5 was > 100 µM (inactive) in each case.

As for `CC(=O)Oc1ccc2[nH]c3c(C)c4cccc-4ccc3c2c1`, the GI50 was 1.79 µM (inactive) in the experiment on ACHN; 2.1 µM (inactive) with OVCAR-8; 3.13 µM (inactive) in the experiment with MOLT-4; 2.47 µM (inactive) with SN12C; 1.85 µM (inactive) in the experiment with 786-0; 2.2 µM (inactive) in the experiment with EKVX. Further, the GI50 in the experiment on RPMI-8226 was 3.03 µM (inactive); in the experiment with SK-MEL-2 it was 1.96 µM (inactive); in the experiment on LOX IMVI, 2.18 µM (inactive); in the experiment on HCC 2998, 2.18 µM (inactive); in the experiment with MCF7, 2.65 µM (inactive); in the experiment with NCI-H23, 1.99 µM (inactive). The GI50 with HT-29 was 2.02 µM (inactive); with HOP-92, 2.12 µM (inactive); in the experiment on T47D, 2.43 µM (inactive); in the experiment with DU-145, 3.27 µM (inactive); in the experiment on A498 it was 2.1 µM (inactive); with OVCAR-5 it was 2.02 µM (inactive).

`C=C(c1ccc2[nH]c(NC(=O)OC)nc2c1)c1cccs1`: the GI50 in the experiment on ACHN is 0.06 µM (active); in the experiment on OVCAR-8 it was 0.299 µM (active); in the experiment on SN12C it was 0.839 µM (active); in the experiment on 786-0 it was 0.155 µM (active); in the experiment on EKVX, 9.46 µM (inactive); in the experiment with RPMI-8226 it was 0.316 µM (active). For the same compound, the GI50 in the experiment on SK-MEL-2 was 2.26 µM (inactive); with LOX IMVI it was 0.0986 µM (active); in the experiment on HCC 2998, 0.217 µM (active); in the experiment with MCF7 it was 0.0925 µM (active); in the experiment on NCI-H23 it was 0.129 µM (active); in the experiment with HT-29, 0.0568 µM (active). The GI50 in the experiment on HOP-92 is 0.975 µM (active); in the experiment on T47D it was 0.354 µM (active); with DU-145, 0.309 µM (active); with A498, 0.425 µM (active); in the experiment on OVCAR-5 it was 2.1 µM (inactive).

On to `CC(=O)OCC1OC(SC2=N/C(=C\c3cc4c(=O)c5ccccc5sc4s3)C(=O)N2c2ccccc2)C(OC(C)=O)C(OC(C)=O)C1OC(C)=O` (stereo not drawn), for which the GI50 is > 100 µM (inactive) in the experiment with ACHN; > 100 µM (inactive) in the experiment on OVCAR-8; 65.8 µM (inactive) in the experiment on SNB-75; 20.6 µM (inactive) in the experiment with MOLT-4; > 100 µM (inactive) with SN12C; > 100 µM (inactive) with 786-0. The GI50 is 65 µM (inactive) in the experiment on EKVX; 50.9 µM (inactive) in the experiment on RPMI-8226; 32 µM (inactive) in the experiment with SK-MEL-2; 55.1 µM (inactive) with LOX IMVI; > 100 µM (inactive) with HCC 2998; 78.7 µM (inactive) in the experiment on MCF7. The GI50 in the experiment on NCI-H23 is > 100 µM (inactive); in the experiment with HT-29, > 100 µM (inactive); with T47D it was > 100 µM (inactive); in the experiment with DU-145, > 100 µM (inactive); in the experiment with A498 it was > 100 µM (inactive); with OVCAR-5, 62.4 µM (inactive).

Take `N#Cc1c(-c2ccc([N+](=O)[O-])cc2)cc(-c2ccc(Nc3ccnc4cc(C(F)(F)F)ccc34)cc2)[nH]c1=O`: the GI50 was > 100 µM (inactive) in the experiment on ACHN; > 100 µM (inactive) in the experiment with OVCAR-8; > 100 µM (inactive) with SNB-75; > 100 µM (inactive) in the experiment with MOLT-4; > 100 µM (inactive) in the experiment on SN12C; 51.9 µM (inactive) in the experiment on 786-0. In addition, the GI50 with EKVX, in the experiment on RPMI-8226, with SK-MEL-2, in the experiment on LOX IMVI, in the experiment on HCC 2998 and in the experiment with MCF7 was > 100 µM (inactive) throughout. Besides, the GI50 was > 100 µM (inactive) in the experiment on NCI-H23; 92.9 µM (inactive) with HT-29; > 100 µM (inactive) in the experiment with T47D; 71.3 µM (inactive) in the experiment with DU-145; > 100 µM (inactive) in the experiment on A498; 21.4 µM (inactive) in the experiment with OVCAR-5.

Consider `COc1ccc2c(c1)[C@@]13CCN4CC5=CCO[C@H]6CC(=O)N2[C@H]1[C@H]6[C@H]5C[C@H]43`, for which the GI50 in the experiment on ACHN was > 100 µM (inactive); in the experiment on OVCAR-8, 59.2 µM (inactive); in the experiment with MOLT-4, 18.6 µM (inactive); with SN12C it was > 100 µM (inactive); in the experiment with 786-0, > 100 µM (inactive); in the experiment with EKVX it was 44.4 µM (inactive). For the same compound, the GI50 in the experiment on RPMI-8226, in the experiment on SK-MEL-2, in the experiment on LOX IMVI, in the experiment on HCC 2998, with MCF7 and in the experiment with NCI-H23 was > 100 µM (inactive) in each case. Besides, the GI50 in the experiment on HT-29 is 37.2 µM (inactive); in the experiment with HOP-92, 95.7 µM (inactive); in the experiment on T47D, > 100 µM (inactive); with DU-145, > 100 µM (inactive); in the experiment on A498, 69.2 µM (inactive); with OVCAR-5, > 100 µM (inactive).

These data come from ChEMBL document CHEMBL1201862, “PubChem BioAssay data set” (2004).
